Reference: PMC4775402 (Pharmacological research, 2016)

Columns and labels:
WT HTR2A = WT HTR2A (Homo sapiens, UniProt P28223); assay: Label-free DMR agonist response, HEK293T expressing WT HTR2A; format: cell-based; conditions: time to peak DMR
ΔPDZ HTR2A = ΔPDZ HTR2A (Homo sapiens, UniProt P28223); assay: Label-free DMR agonist response, HEK293T expressing ΔPDZ HTR2A; format: cell-based
Chain of ΔPDZ HTR2A (P28223 1-467 limits assumed, stated change not applied): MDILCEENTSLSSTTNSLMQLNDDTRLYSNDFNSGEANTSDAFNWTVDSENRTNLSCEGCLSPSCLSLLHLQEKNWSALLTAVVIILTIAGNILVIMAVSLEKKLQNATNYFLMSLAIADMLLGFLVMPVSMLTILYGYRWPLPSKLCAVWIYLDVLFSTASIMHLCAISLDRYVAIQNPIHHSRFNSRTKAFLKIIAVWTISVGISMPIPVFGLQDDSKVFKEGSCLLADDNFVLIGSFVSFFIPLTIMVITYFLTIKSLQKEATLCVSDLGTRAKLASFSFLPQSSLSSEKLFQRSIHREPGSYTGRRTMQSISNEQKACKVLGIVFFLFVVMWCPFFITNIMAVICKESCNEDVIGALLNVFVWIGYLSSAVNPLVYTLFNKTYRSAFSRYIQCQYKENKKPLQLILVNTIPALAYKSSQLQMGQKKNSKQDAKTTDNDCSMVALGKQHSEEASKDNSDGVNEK

Chain of WT HTR2A (P28223 whole entry): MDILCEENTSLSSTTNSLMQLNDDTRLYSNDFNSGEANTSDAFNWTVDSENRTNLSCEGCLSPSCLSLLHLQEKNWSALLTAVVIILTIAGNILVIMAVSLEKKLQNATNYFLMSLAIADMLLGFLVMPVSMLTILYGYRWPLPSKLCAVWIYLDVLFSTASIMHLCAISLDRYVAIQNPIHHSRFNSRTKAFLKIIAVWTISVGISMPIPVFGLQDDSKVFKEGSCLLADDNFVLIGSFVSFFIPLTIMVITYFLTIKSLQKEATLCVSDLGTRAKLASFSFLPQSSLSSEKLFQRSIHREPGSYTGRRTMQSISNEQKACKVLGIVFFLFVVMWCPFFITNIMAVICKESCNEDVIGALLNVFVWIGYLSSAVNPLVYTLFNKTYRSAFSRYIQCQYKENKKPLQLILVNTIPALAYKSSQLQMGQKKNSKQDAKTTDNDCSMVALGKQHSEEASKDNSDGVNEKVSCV

- WT TTP (WT HTR2A): 14.10 s
- ΔPDZ Max (DMR) (ΔPDZ HTR2A; maximal agonist DMR response): 106.10 ± 3.96
- ΔPDZ TTP (ΔPDZ HTR2A; time to peak DMR): 14.70 s
Structure (SMILES): Cl.NCCc1c[nH]c2ccc(O)cc12 [5-hydroxytryptamine, 5-hydroxytryptamine hydrochloride]
